In ChEMBL document CHEMBL4627347, “The signal peptide as a new target for drug design” (Bioorg Med Chem Lett, 2020):

What was measured:
[1] = molecular target: T-cell surface glycoprotein CD4 (Homo sapiens, UniProt P01730); test: Inhibition of FITC-tagged human CD4 expressed in human SUP-T1 cells after 72 hrs by FACS analysis; assay type: cell-based
Sortilin = molecular target: T1, Sortilin (Homo sapiens, UniProt Q99523); test: Inhibition of GFP-tagged Sortilin (unknown origin) expressed in HEK293T cells after 42 hrs by FACS analysis; assay type: cell-based, HEK-293T
T1 sequence (Q99523 whole entry): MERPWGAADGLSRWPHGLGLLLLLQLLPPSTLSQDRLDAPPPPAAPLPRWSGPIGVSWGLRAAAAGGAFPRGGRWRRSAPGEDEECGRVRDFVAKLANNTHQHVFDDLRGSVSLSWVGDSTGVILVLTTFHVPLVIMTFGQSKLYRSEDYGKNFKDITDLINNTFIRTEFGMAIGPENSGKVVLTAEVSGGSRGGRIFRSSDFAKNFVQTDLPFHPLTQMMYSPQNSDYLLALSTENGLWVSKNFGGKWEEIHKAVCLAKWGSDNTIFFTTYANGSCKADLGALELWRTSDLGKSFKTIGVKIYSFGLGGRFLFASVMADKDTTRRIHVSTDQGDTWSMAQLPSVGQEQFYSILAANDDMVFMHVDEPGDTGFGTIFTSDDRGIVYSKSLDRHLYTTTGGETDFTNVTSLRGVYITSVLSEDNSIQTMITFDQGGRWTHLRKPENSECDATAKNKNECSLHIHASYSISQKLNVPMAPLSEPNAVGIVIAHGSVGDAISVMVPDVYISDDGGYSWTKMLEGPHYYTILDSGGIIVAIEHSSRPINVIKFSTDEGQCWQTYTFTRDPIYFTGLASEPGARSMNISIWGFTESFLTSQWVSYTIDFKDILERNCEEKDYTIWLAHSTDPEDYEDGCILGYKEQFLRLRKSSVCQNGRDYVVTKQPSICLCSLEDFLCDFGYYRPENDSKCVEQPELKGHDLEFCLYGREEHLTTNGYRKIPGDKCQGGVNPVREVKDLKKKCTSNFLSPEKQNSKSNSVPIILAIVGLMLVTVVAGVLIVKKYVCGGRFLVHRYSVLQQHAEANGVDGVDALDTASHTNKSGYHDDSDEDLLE

IC50 [1]: 0.21 µM
IC50 (Sortilin): 0.38 µM
SMILES: C=C1CN(S(=O)(=O)c2ccc(C)cc2)CCCN(Cc2ccccc2)CCCN(S(=O)(=O)c2ccc(C)cc2)C1
